{"source": "patent US20230034359A1", "about": "“GENERATION OF MATURE KUPFFER CELLS” (AGENCY FOR SCIENCE, TECHNOLOGY AND RESEARCH, priority 2018, published 2023)", "key": {"[1]": {"test_system": "iHeps in co-culture with iKCs", "assay": "in vitro", "format": "cell-based, human", "experimental": "(§1) For co-cultures, NL-Mφ, pKCs or iKCs were seeded at a density of 12,000 to 15,000 cells per well on Collagen I-coated 96-well plates. The cells were seeded in their respective media for 24 hours. Following cell attachment, medium was removed and iHeps or pHeps were seeded at a density of 2.5 times the density of the NL-Mφ/pKCs/iKCs in William's E media containing supplemental cocktail B. In some experiments, Advanced DMEM with supplement cocktail B (Media A) was used. The matching hepatocyte mono-culture controls were seeded in the same media and at the same density as the co-cultures.\n(§2) Cell viability of differentiated hepatocytes was measured 24 hours after treatment with drugs using Alamar Blue® cell viability assay (Life Technologies) according to manufacturer's instructions. The following drugs were used for the cell viability assays: Acetaminophen, Trovafloxacin and Levofloxacin (all drugs from Sigma). Stock solutions of drugs were prepared in DMSO and then diluted in media to obtain desired working concentrations. Controls were treated with solvent alone (in absence of test compounds) and considered as 100% viability value."}, "[2]": {"test_system": "pHeps in co-culture with iKCs", "assay": "Alamar Blue cell viability, pHeps-iKCs co-culture", "format": "cell-based, human", "settings": "Homo sapiens, 24 h", "experimental": "as §1, §2"}, "[3]": {"test_system": "pHeps in co-culture with pKCs", "assay": "Alamar Blue cell viability, pHeps-pKCs co-culture", "format": "cell-based, human", "settings": "Homo sapiens, 24 h", "experimental": "as §1, §2"}, "pHeps mono-culture": {"test_system": "pHeps mono-culture", "assay": "Alamar Blue cell viability, pHeps mono-culture", "format": "cell-based, human", "settings": "Homo sapiens, 24 h", "experimental": "as §1, §2"}, "iHeps mono-culture [4]": {"test_system": "iHeps mono-culture", "assay": "Alamar Blue cell viability, iHeps mono-culture", "format": "cell-based, human", "settings": "Homo sapiens; iHeps mono-culture", "experimental": "as §1, §2"}, "[5]": {"test_system": "pHeps in co-culture with NL-Mφ", "format": "cell-based, human", "experimental": "as §1, §2"}, "iHeps-iKCs co-culture [6]": {"test_system": "iHeps-iKCs co-culture", "assay": "Cytokine production (ELISA) in cholestasis model", "format": "cell-based, human", "settings": "100 ng/ml LPS and 10 μM CPZ, 24 hours", "experimental": "(§3) Interleukin-6 (IL-6) and Tumor necrosis factor alpha (TNFα) levels in the media were measured using human IL-6 and TNFα enzyme-linked immunosorbent assay (ELISA) kits (Abcam) according to manufacturer's instructions.\n(§4) Cells were incubated with 10 μM Fluorescein diacetate (FDA) and incubated for 30 minutes. The FDA-containing medium was removed and the cells were washed thrice with medium to remove any residual FDA. Images of bile acid accumulation were acquired using Olympus BX-DSU and quantified using Image J software and normalized to untreated control."}, "iHeps mono-culture [7]": {"test_system": "iHeps mono-culture", "assay": "Cholestasis model, mono-culture control", "format": "cell-based, human", "settings": "CPZ treatment", "experimental": "as §4"}, "[8]": {"test_system": "BSEP, MDR1 and MRP1 mRNA in iHeps-iKCs co-culture", "assay": "qPCR of bile transporter genes in cholestasis model", "format": "cell-based, human", "settings": "CPZ treatment", "experimental": "RNA was isolated using RNeasy Micro-kit (Qiagen, Hilden, Germany), RNA amount was determined using a NanoDrop™ ND-1000 Spectrophotometer (Life Technologies) and RNA was converted to cDNA using iScript cDNA synthesis kit (Bio-Rad Laboratories, Hercules, Calif., USA). 7000 Fast Real-Time PCR System (Applied Biosystems, Foster City, Calif., USA) was used for qPCR using primers commercially obtained from GeneCopoeia, Inc.\n(Rockville, Md., USA). The expression levels of all marker genes were normalized to that of glyceraldehyde-3-phosphate dehydrogenase (GAPDH).\nas §4"}, "iHeps-iKCs co-culture [9]": {"test_system": "iHeps-iKCs co-culture", "assay": "Bile acid accumulation (FDA)", "format": "cell-based, human", "settings": "100 ng/ml LPS and 10 μM CPZ, 24 hours; versus untreated control", "experimental": "as §4"}, "in vitro": {"assay": "in vitro", "format": "cell-based, human", "settings": "human", "experimental": "as §1, §2"}, "[10]": {"assay": "Alamar Blue cell viability, pHeps-pKCs co-culture", "format": "cell-based, human", "settings": "human, pHeps in co-culture with pKCs", "experimental": "as §1, §2"}, "[11]": {"assay": "Alamar Blue cell viability, pHeps mono-culture", "format": "cell-based, human", "settings": "human, pHeps mono-culture", "experimental": "as §1, §2"}, "[12]": {"assay": "Alamar Blue cell viability, iHeps mono-culture", "format": "cell-based, human", "settings": "human, iHeps mono-culture (stem-cell derived)", "experimental": "as §1, §2"}, "[13]": {"assay": "Alamar Blue cell viability, pHeps-iKCs co-culture", "format": "cell-based, human", "settings": "human, pHeps in co-culture with iKCs; 100 μM, pHeps-iKCs co-culture", "experimental": "as §1, §2"}, "iKCs": {"test_system": "iKCs", "assay": "LPS-induced cytokine production (ELISA) in iKCs", "format": "cell-based, human", "design": "TNFα production upon LPS stimulation: unit not given here", "experimental": "as §3"}, "pKCs": {"test_system": "pKCs", "assay": "LPS-induced cytokine production (ELISA) in pKCs", "format": "cell-based, human", "experimental": "as §3"}, "NL-Mφ": {"test_system": "NL-Mφ", "assay": "LPS-induced cytokine production (ELISA) in NL-Mφ", "format": "cell-based, human", "experimental": "as §3"}, "pHeps": {"test_system": "pHeps", "assay": "LPS-induced cytokine production (ELISA) in pHeps", "format": "cell-based, human", "experimental": "as §3"}, "KCs": {"test_system": "KCs", "settings": "reference [46], cited from earlier work"}, "[14]": {"settings": "100 ng/ml LPS for 16 hours, versus no LPS"}}, "data": [{"compound": "CC(=O)Nc1ccc(O)cc1", "note": "[APAP, Acetaminophen]", "values": [{"measurement": "cell viability, donor-matched co-culture versus mono-culture", "setting": "[1]", "result": "no significant difference"}, {"measurement": "IC50", "setting": "[1]; Homo sapiens, read-out: IC50 (cell viability)", "result": 27, "unit": "mM"}, {"measurement": "IC50", "setting": "[2]", "result": 25, "unit": "mM"}, {"measurement": "IC50", "setting": "[3]", "result": 12.5, "unit": "mM"}, {"measurement": "IC50", "setting": "pHeps mono-culture", "result": 45, "unit": "mM"}, {"measurement": "IC50", "setting": "iHeps mono-culture [4]", "result": 54, "unit": "mM"}, {"measurement": "cell death, co-culture versus pHeps mono-culture", "setting": "[5]", "result": "No difference in cell death"}]}, {"compound": "CN(C)CCCN1c2ccccc2Sc2ccc(Cl)cc21", "note": "[CPZ, Chlorpromazine]", "values": [{"measurement": "IL-6 production, fold compared to untreated control", "setting": "iHeps-iKCs co-culture [6]", "result": 4.5, "unit": "fold"}, {"measurement": "TNFα production, fold compared to untreated control", "setting": "iHeps-iKCs co-culture [6]", "result": 6.5, "unit": "fold"}, {"measurement": "bile acid accumulation, cytokine production and reduction in transporter gene expression", "setting": "iHeps mono-culture [7]", "result": "not in mono-culture"}, {"measurement": "mRNA expression of bile salt export pump (BSEP), fold change to untreated control", "setting": "[8]", "result": "0.3±0.1", "unit": "folds"}, {"measurement": "mRNA expression of multidrug resistance (MDR1), fold change to untreated control", "setting": "[8]", "result": "0.4±0.2", "unit": "folds"}, {"measurement": "mRNA expression of multidrug resistance-associated protein 1 (MRP1), fold change to untreated control", "setting": "[8]", "result": "0.5±0.2", "unit": "folds"}, {"measurement": "bile acid accumulation", "setting": "iHeps-iKCs co-culture [9]", "result": "Significant bile acid accumulation"}]}, {"compound": "C[C@H]1COc2c(N3CCN(C)CC3)c(F)cc3c(=O)c(C(=O)O)cn1c23", "note": "[Levofloxacin]", "values": [{"measurement": "viability at 24 h", "setting": "in vitro", "result": "> 90", "unit": "%"}, {"measurement": "viability at 24 h", "setting": "[10]", "result": "> 90", "unit": "%"}, {"measurement": "viability at 24 h", "setting": "[11]", "result": "> 90", "unit": "%"}, {"measurement": "viability at 24 h", "setting": "[12]", "result": "> 90", "unit": "%"}]}, {"compound": "N[C@@H]1[C@H]2CN(c3nc4c(cc3F)c(=O)c(C(=O)O)cn4-c3ccc(F)cc3F)C[C@@H]12", "note": "[Trovafloxacin]", "values": [{"measurement": "viability at 24 h, 100 µM", "setting": "[13]", "result": 55.8, "unit": "%"}, {"measurement": "viability at 24 h, 100 µM", "setting": "[10]; 100 μM, pHeps-pKCs co-culture", "result": 53.8, "unit": "%"}, {"measurement": "viability at 24 h, 100 µM", "setting": "[11]; 100 μM", "result": 73.8, "unit": "%"}, {"measurement": "cell viability, co-culture versus mono-culture", "setting": "[5]", "result": "No difference in cell viability"}]}, {"compound": "lipopolysaccharide [LPS]", "values": [{"measurement": "IL-6 production upon LPS stimulation", "setting": "iKCs", "result": 5200, "unit": "pg/mL"}, {"measurement": "TNFα production upon LPS stimulation", "setting": "iKCs", "result": "10,000"}, {"measurement": "IL-6 level, LPS-treated", "setting": "iKCs; 100 ng/ml LPS for 16 hours", "result": 5260, "unit": "pg/million cells/24 h"}, {"measurement": "fold increase in IL-6 production", "setting": "iKCs; [14]", "result": 35, "unit": "fold"}, {"measurement": "fold increase in TNFα production", "setting": "iKCs; [14]", "result": 33, "unit": "folds"}, {"measurement": "IL-6 production upon LPS stimulation", "setting": "pKCs", "result": 2018, "unit": "pg/mL"}, {"measurement": "IL-6 level, LPS-treated", "setting": "pKCs; 100 ng/ml LPS for 16 hours", "result": 3420, "unit": "pg/million cells/24 h"}, {"measurement": "fold increase in IL-6 production", "setting": "pKCs; [14]", "result": 25, "unit": "folds"}, {"measurement": "fold increase in TNFα production", "setting": "pKCs; [14]", "result": 35, "unit": "folds"}, {"measurement": "fold increase in IL-6 production", "setting": "NL-Mφ; [14]", "result": 103, "unit": "folds"}, {"measurement": "fold increase in TNFα production", "setting": "NL-Mφ; 100 ng/ml LPS, level without LPS not detectable", "result": "> 1000", "unit": "folds"}, {"measurement": "TNFα production upon LPS activation", "setting": "pHeps", "result": "below detectable levels"}, {"measurement": "TNFα production upon LPS stimulation", "setting": "KCs; KCs", "result": 4000, "unit": "pg/mL"}, {"measurement": "IL-6 production upon LPS stimulation", "setting": "KCs", "result": 800, "unit": "pg/mL"}]}]}
